Measured values published in ChEMBL document CHEMBL5055664, “A Novel Anticancer Stem Cell Compound Derived from Pleuromutilin Induced Necroptosis of Melanoma Cells” (J Med Chem, 2021).
≈ marks a conversion by molar mass, not a printed value. One block for each compound: values may come before it. Calls of active or inactive are those of the source. The calls are words filed in the database; no cut-off is given here.

Legend:
[1] = Tmax in Sprague-Dawley rat at 50 mg/kg, po by LC-MS/MS analysis; format: ADME, organism-based; conditions: in vivo
[2] = Half life in Sprague-Dawley rat at 50 mg/kg, po by LC-MS/MS analysis; format: ADME, organism-based; conditions: in vivo
[3] = Oral bioavailability in Sprague-Dawley rat at 50 mg/kg by LC-MS/MS analysis; format: ADME, organism-based; conditions: in vivo
[4] = Cmax in Sprague-Dawley rat at 20 mg/kg, iv by LC-MS/MS analysis; format: ADME, organism-based; set-up: dose 20 mg/kg, route iv; conditions: in vivo
[5] = Cmax in Sprague-Dawley rat at 50 mg/kg, po by LC-MS/MS analysis; format: ADME, organism-based; set-up: dose 50 mg/kg, route po; conditions: in vivo
[6] = MRT (0 to t) in Sprague-Dawley rat at 20 mg/kg, iv by LC-MS/MS analysis; format: ADME, organism-based; conditions: in vivo
[7] = Tmax in Sprague-Dawley rat at 20 mg/kg, iv by LC-MS/MS analysis; format: ADME, organism-based; conditions: in vivo
[8] = MRT (0 to t) in Sprague-Dawley rat at 50 mg/kg, po by LC-MS/MS analysis; format: ADME, organism-based; conditions: in vivo
[9] = Half life in Sprague-Dawley rat at 20 mg/kg, iv by LC-MS/MS analysis; format: ADME, organism-based; conditions: in vivo
4T1 = test: Cytotoxicity against mouse 4T1 cells assessed as inhibition of cell growth measured after 72 hrs by MTT assay; format: functional, cell-based; conditions: 4T1, 72 h
A-375 [10] = test: Cytotoxicity against human A-375 cells assessed as inhibition of cell growth measured after 72 hrs by MTT assay; format: functional, cell-based; conditions: A-375, 72 h
HCT-116 = test: cells; conditions: Homo sapiens, HCT-116, 72 h
CT26 = test: cells; conditions: Mus musculus, CT26, 72 h
B16-F10 [11] = test: Cytotoxicity against mouse B16-F10 cells assessed as inhibition of cell growth measured after 72 hrs by MTT assay; format: functional, cell-based; conditions: B16-F10, 72 h
Kasumi 1 = test: cells; conditions: Homo sapiens, Kasumi 1, 72 h
B16-F10 [12] = test: Induction of morphological changes in mouse B16-F10 cells assessed as formation of apoptotic bodies at 0.5 to […] measured after 48 hrs by AnnexinV-FITC/propidium iodide staining based flow cytometry; format: functional, cell-based; conditions: dose 0.5-2.5 µM
B16-F10 [13] = test: Induction of secondary necrosis in mouse B16-F10 cells at 0.5 to […] measured after 48 hrs by AnnexinV-FITC/propidium iodide staining based flow cytometry; format: functional, cell-based; conditions: dose 0.5-2.5 µM
Escherichia coli = test: Antimicrobial activity against Escherichia coli assessed as bacterial growth inhibition; format: functional
Bacillus subtilis = test: Antimicrobial activity against Bacillus subtilis assessed as bacterial growth inhibition; format: functional
Staphylococcus aureus = test: Antimicrobial activity against Staphylococcus aureus assessed as bacterial growth inhibition; format: functional
B16-F10 [14] = test: Anticancer activity against mouse B16-F10 cancer stem cells assessed as CD44+CD24+ marker cells at 1.25 uM measured after 30 hrs by FITC/APC staining based flow cytometry (reference value: […]); format: functional
B16-F10 [15] = test: Anticancer activity against mouse B16-F10 cancer stem cells assessed as CD44+CD24+ marker cells at […] measured after 30 hrs by FITC/APC staining based flow cytometry (reference value: […]); format: functional; conditions: dose 2.5 µM
A-375 [16] = test: Anticancer activity against human A-375 cancer stem cells assessed as CD44+CD133+ marker cells at […] measured after 30 hrs by FITC/APC staining based flow cytometry (reference value: […]); format: functional; conditions: dose 2.5 µM
B16-F10 [17] = test: Anticancer activity against mouse B16-F10 cancer stem cells assessed as CD44+CD24+ marker cells at 5 uM measured after 30 hrs by FITC/APC staining based flow cytometry (reference value: […]); format: functional
A-375 [18] = test: Anticancer activity against human A-375 cancer stem cells assessed as CD44+CD133+ marker cells at 1.25 uM measured after 30 hrs by FITC/APC staining based flow cytometry (reference value: […]); format: functional
A-375 [19] = test: Anticancer activity against human A-375 cancer stem cells assessed as CD44+CD133+ marker cells at 5 uM measured after 30 hrs by FITC/APC staining based flow cytometry (reference value: […]); format: functional

- Tmax [1]: 2.67 h
- half-life [2]: 6.54 h
- bioavailability [3]: 88%
- Cmax [4]: 3400 ng/mL
- Cmax [5]: 3650 ng/mL
- MRT last [6]: 2.91 h
- Tmax [7]: 4.98 min
- MRT last [8]: 4.71 h
- half-life [9]: 1.33 h
SMILES: C=C[C@]1(C)C[C@@H](OC(=O)c2ccc(C(F)(F)F)cn2)[C@]2(C)[C@H](C)CC[C@]3(CC(=C)C(=O)[C@H]32)[C@@H](C)[C@@H]1OC(=O)c1ccc(C(F)(F)F)cn1

- IC50 (HCT-116): 9.37 µM
- IC50 (CT26): > 10 µM
- IC50 (Kasumi 1): 2.45 µM
SMILES: C=C[C@]1(C)C[C@@H](O)[C@]2(C)[C@H](C)CC[C@]3(CC(=C)C(=O)[C@H]32)[C@@H](C)[C@@H]1OC(=O)Cc1ccc(F)cc1
- IC50 (4T1): > 10 µM
- IC50 (A-375 [10]): 5.73 µM
- IC50 (B16-F10 [11]): 2.31 µM

SMILES: COc1cccc2c1C(=O)c1c(O)c3c(c(O)c1C2=O)C[C@@](O)(C(=O)CO)C[C@@H]3O[C@H]1C[C@H](N)[C@H](O)[C@H](C)O1
- Activity (B16-F10 [12]): Active
- Activity (B16-F10 [13]): Active

- MIC (Escherichia coli): 50 µg/mL (≈ 132 µM)
- IC50 (HCT-116): > 100 µM
- MIC (Bacillus subtilis): 100 µg/mL (≈ 264 µM)
- IC50 (CT26): > 100 µM
- IC50 (Kasumi 1): > 100 µM
- MIC (Staphylococcus aureus): 10 µg/mL (≈ 26.4 µM)
SMILES: C=C[C@]1(C)C[C@@H](OC(=O)CO)[C@]2(C)[C@H](C)CC[C@]3(CCC(=O)[C@H]32)[C@@H](C)[C@@H]1O [PLEUROMULIN]
- IC50 (4T1): > 100 µM
- IC50 (A-375 [10]): > 100 µM
- IC50 (B16-F10 [11]): > 100 µM

SMILES: CC(=O)O[C@H]1C(=O)[C@@]2(C)[C@H]([C@H](OC(=O)c3ccccc3)[C@]3(O)C[C@H](OC(=O)[C@H](O)[C@@H](NC(=O)c4ccccc4)c4ccccc4)C(C)=C1C3(C)C)[C@]1(OC(C)=O)CO[C@@H]1C[C@@H]2O [PACLITAXEL]
- Activity (B16-F10 [14]): 11.3%
- Activity (B16-F10 [15]): 12.5%
- Activity (A-375 [16]): 19.3%
- Activity (B16-F10 [17]): 24%
- Activity (A-375 [18]): 18.1%
- Activity (A-375 [19]): 20%
